Test results: publication PMC6681301, “Multi-Target β-Protease Inhibitors from Andrographis paniculata: In Silico and In Vitro Studies” (Plants, 2019)

Experiments:
[1] = biological target: Acetylcholinesterase (Human) (Homo sapiens, UniProt P22303); test: In vitro AChE activity assay (Ellman); format: biochemical
Experimental: (§1) The inhibitory activities of both AChE and BChE were measured using the spectrophotometric method developed by Ellman. Acetylcholinesterase (Human), butyrylcholinesterase (Human) with […] (ACh), and […] (BCh) were used as their substrates, respectively. The enzyme activity was observed using Varioskan Flash (version 4.00.53), and the reading was observed using SkanIt Software (2.4.5 RE for Varioskan Flash). AChE and BChE solutions of ~0.15 unit/μL were prepared. The stock solution of AChE substrate (2.5 μM) and BChE substrate (2.5 μM) solution was prepared with DMSO, respectively.
(§2) The isolated compound inhibitor solutions were prepared using the same method as discussed in the BACE-1 assay. The sodium phosphate buffer (pH 8) (78 μL, 79 μL, 80 μL, 81 μL), 20 μL of the 5, 5′-dithiobis-(2-nitrobenzoic acid) (DTNB), AChE, and BChE enzyme solution (2 μL), substrate solution (20 μL), and inhibitor solutions (0 μL, 1 μL, 2 μL, 3 μL, 4 μL) were added to a 96-well plate. Each concentration was considered in triplicate. The plate was incubated for 15 min at 25 °C, and the readings were taken at 412 nm. The percentage inhibition was calculated using the formula percentage inhibition = (1 − C/I) × 100, where C and I were the enzyme activities without and with the test sample, respectively.

[2] = biological target: butyrylcholinesterase (Human) (Homo sapiens, UniProt P06276); test: In vitro BChE activity assay (Ellman); format: biochemical
Experimental: as §1, §2

BACE-1 = biological target: T1, BACE-1 (Homo sapiens, UniProt P56817); test: In vitro BACE-1 activity assay (Sigma BACE-1 FRET assay kit); format: biochemical
T1 construct: purchased Sigma
Experimental: The assay was performed according to the manufacturer protocol supplied in BACE-1 activity (Sigma, BACE-1FRET assay kit). […] The BACE-1 substrate solution (50 μM), a BACE-1 enzyme solution (2 μL), and inhibitor solutions were prepared as per the manufacturer’s protocol.
BACE-1 substrate solution was prepared with 1 mg/mL (500 μM) by adding 0.5 ml of DMSO to BACE-1 substrate. 7-Methoxycumarin-4-acetyl-Asn670, Lue 671-Amyloid β/A4 Precursor Protein 770 Fragment 667-(2,4 dinitrophenyl), and Lys-Arg-Arg amide […] salt was used as a substrate for BACE-1. A BACE-1 enzyme solution of ~0.3 unit/μL was prepared. […] The isolated compounds were used for the isolated inhibitor solution preparation. The 5281780 solution (20 μM) with 1% DMSO was prepared after heating the solution at 55 °C for 5 min. The 188316 solution (20 μM) was prepared with 1% DMSO. The 5280443 solution was also prepared with concentration of 20 μM in 1% DMSO. These inhibitor solutions with variable concentrations (1 μM, 2 μM, 3 μM, 4 μM) were used for testing BACE-1 activities. The fluorescence assay buffer (78 μL, 79 μL, 80 μL, 81 μL), a BACE-1 enzyme solution (2 μL), the substrate solution (20 μL), and inhibitor solutions (0 μL, 1 μL, 2 μL, 3 μL, 4 μL) were added to a 96-well plate. Each concentration was considered in triplicate. […] The plate was incubated for 120 min at 37 °C, and the readings were taken. The readings were noted as S120. The percent inhibition was calculated using the formula, percent inhibition = [1 − (S120 − S0)/(C120 − C0)] × 100 [139].

[3] = biological target: glycogen synthase kinase-3b; conditions: read-out: IC50, inhibition of glycogen synthase kinase-3b; cited from earlier work
BChE = test system: BChE; parameters: method as in PMID 29850593; conditions: cited from earlier work
AChE = test system: AChE; parameters: method as in PMID 29850593; conditions: cited from earlier work
BChE (equine serum) = test system: BChE (equine serum); parameters: method as in PMID 23529036; conditions: cited from earlier work
AChE (electric eel) = test system: AChE (electric eel); parameters: method as in PMID 23529036; conditions: cited from earlier work

T1 sequence (P56817 46-501): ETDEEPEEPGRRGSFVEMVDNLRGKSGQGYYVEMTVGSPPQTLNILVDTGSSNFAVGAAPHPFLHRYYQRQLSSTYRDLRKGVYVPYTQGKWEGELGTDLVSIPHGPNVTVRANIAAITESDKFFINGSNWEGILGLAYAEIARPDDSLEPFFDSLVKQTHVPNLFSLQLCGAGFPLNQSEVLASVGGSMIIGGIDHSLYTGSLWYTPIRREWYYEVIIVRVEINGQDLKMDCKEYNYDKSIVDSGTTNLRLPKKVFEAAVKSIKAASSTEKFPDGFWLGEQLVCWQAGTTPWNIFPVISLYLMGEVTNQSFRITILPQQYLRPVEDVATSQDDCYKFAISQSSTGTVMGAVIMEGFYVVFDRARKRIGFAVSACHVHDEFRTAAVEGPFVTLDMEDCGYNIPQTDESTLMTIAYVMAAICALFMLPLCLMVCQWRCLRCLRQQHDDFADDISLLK
Acetylcholinesterase (Human), sequence (P22303 32-614): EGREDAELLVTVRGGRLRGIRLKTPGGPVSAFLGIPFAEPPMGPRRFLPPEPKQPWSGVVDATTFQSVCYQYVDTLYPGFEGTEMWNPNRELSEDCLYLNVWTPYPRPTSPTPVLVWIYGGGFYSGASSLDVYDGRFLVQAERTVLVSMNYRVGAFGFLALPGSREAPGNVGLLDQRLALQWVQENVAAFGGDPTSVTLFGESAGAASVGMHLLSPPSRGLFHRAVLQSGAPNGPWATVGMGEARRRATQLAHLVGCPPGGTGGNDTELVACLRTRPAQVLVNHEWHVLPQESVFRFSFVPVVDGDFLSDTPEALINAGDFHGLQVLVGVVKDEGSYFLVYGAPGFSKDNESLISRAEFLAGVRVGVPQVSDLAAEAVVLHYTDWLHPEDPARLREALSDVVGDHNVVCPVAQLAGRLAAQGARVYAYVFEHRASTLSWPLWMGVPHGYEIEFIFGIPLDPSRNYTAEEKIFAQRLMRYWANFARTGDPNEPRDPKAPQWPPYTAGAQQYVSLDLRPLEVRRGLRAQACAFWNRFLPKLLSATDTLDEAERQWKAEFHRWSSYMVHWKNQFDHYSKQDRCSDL
butyrylcholinesterase (Human), sequence (P06276 29-602): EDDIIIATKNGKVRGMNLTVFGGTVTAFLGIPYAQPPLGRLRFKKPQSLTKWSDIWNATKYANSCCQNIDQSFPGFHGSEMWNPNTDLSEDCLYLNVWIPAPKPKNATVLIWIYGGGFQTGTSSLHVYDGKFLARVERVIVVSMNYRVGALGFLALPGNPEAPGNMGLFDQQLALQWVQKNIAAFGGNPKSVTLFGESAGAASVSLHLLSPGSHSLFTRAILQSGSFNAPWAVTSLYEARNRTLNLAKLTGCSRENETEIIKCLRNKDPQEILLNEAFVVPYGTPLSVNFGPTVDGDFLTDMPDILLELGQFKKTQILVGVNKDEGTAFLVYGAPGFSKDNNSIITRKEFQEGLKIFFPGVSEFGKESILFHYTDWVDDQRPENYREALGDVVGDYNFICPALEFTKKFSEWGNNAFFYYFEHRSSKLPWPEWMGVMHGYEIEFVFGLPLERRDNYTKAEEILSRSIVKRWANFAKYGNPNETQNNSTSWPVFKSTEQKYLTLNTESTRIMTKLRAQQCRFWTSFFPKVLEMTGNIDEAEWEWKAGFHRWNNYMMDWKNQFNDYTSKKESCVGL

Structure (SMILES) | IC50 [1] | IC50 [2] | IC50 (BACE-1) | other results
O=c1cc(-c2ccc(O)cc2)oc2cc(O)cc(O)c12 [Compound 5280443, apigenin] | 3420 ± 20 nM | 1970 ± 10 nM | 3790 ± 260 nM | IC50 [3]: 1900 nM
COc1cc(O)c2c(=O)cc(-c3ccccc3)oc2c1OC [Compound 188316, 7-o-methylwogonin] | 2460 ± 30 nM | 1460 ± 20 nM | 2910 ± 40 nM | potency relative to eserine ([1]; comparison of IC50 values (Table 4)): ~1.5 fold
O=C(C=Cc1ccc(O)c(O)c1)OC1CC(O)(C(=O)O)CC(O)C1OC(=O)C=Cc1ccc(O)c(O)c1 (centres unmarked) [Compound 5281780, 3,4-di-o-caffeoylquinic acid] | 2140 ± 40 nM | – | 3310 ± 120 nM | –
COc1cc2c(cc1O)C[C@H]1c3c(cc(O)c(OC)c3-2)CCN1C [Boldine] | – | – | – | IC50 (BChE): 321000 nM; IC50 (AChE): 372000 nM
